Results as given in the supplement of paper PMC11208160.

Assay: recombinant UMI read abundance after kanamycin selection (control-corrected) (log10(CPM+1)); higher = more efficient recombination; extreme values may be limits of the assay; sequences stand for … in AGTGCAGAGAAAATCGGCCAGTTTTCTCTGCCTGCAGTCCGCATGCCGTGGGACCCCTTGGGTTCTAACCTGTTGCCTAGATTTATGCAGCGGACTGCCTTTCTCCCAAAGTGATAAACCGG…AGGTTGGTTTCACT; site = the 11-nt donor
Procedure, shortened: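 Sequenced counts of recombinant UMIs were turned into CPM, averaged across replicates and scaled with control-derived factors. The reported figure is log10(CPM+1). Those UMIs, each 12 nt long, tagged donor and donor-binding-loop pairs on a plasmid with a promoterless kanamycin gene, screened as a pool in Escherichia coli with IPTG (0.07 mM) plus kanamycin or without selection.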
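Further: IS621 bridge recombinase in Escherichia coli cells against a fixed T5 target plasmid.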

| Sequence | recombinant UMI read abundance (log10) |
| --- | --- |
| TCGATGGCATGGACCGGTTTTCCCGGTAATCCGTATTTGCC (site TCGATGGCTGG) | 0 |
| TCGATGTCATGGACCGGTTTTCCCGGTAATCCGTATTTGTA (site TCGATGTCTTA) | 1.41 |
| TCGATGTCATGGACCGGTTTTCCCGGTAATCCGTATTTGTG (site TCGATGTCTCA) | 0.868 |
| TCGCAAACATGGACCGGTTTTCCCGGTAATCCGTATTTGCC (site TCGCAAACTGG) | 0 |
| TCGCAACCATGGACCGGTTTTCCCGGTAATCCGTATTTGTT (site TCGCAACCTAA) | 0 |
| TCGCATGCATGGACCGGTTTTCCCGGTAATCCGTATTTGGT (site TCGCATGCTAC) | 0.656 |
| TCGCCAGCATGGACCGGTTTTCCCGGTAATCCGTATTTGTG (site TCGCCAGCTCA) | 0.0192 |
| TCGCCATCATGGACCGGTTTTCCCGGTAATCCGTATTTGTT (site TCGCCATCTAA) | 0.0036 |
| TCGCCTTCATGGACCGGTTTTCCCGGTAATCCGTATTTGGT (site TAGCCTTCTAC) | 0.0118 |
| TCGCCTTCATGGACCGGTTTTCCCGGTAATCCGTATTTGGT (site TCGCCTTCTAC) | 0.00817 |
| TCGCCTTCATGGACCGGTTTTCCCGGTAATCCGTATTTGGT (site TGGCCTTCTAC) | 0.00543 |
| TCGCCTTCATGGACCGGTTTTCCCGGTAATCCGTATTTGGT (site TTGCCTTCTAC) | 0.00786 |
| TCGCGAACATGGACCGGTTTTCCCGGTAATCCGTATTTGTA (site TCGCGAACTTA) | 1.18 |
| TCGCTAGCATGGACCGGTTTTCCCGGTAATCCGTATTTGAA (site TAGCTAGCTTT) | 0.00313 |
| TCGCTAGCATGGACCGGTTTTCCCGGTAATCCGTATTTGAA (site TCGCTAGCTTT) | 0.00622 |
| TCGCTAGCATGGACCGGTTTTCCCGGTAATCCGTATTTGAA (site TGGCTAGCTTT) | 0 |
| TCGCTAGCATGGACCGGTTTTCCCGGTAATCCGTATTTGAA (site TTGCTAGCTTT) | 0.0117 |
| TCGCTAGCATGGACCGGTTTTCCCGGTAATCCGTATTTGGC (site TCGCTAGCTGC) | 0 |
| TCGCTGTCATGGACCGGTTTTCCCGGTAATCCGTATTTGGA (site TCGCTGTCTTC) | 1.34 |

| Sequence | recombinant UMI read abundance (log10) |
| --- | --- |
| TCGGAGACATGGACCGGTTTTCCCGGTAATCCGTATTTGAT (site TCGGAGACTAT) | 1.93 |
| TCGGATACATGGACCGGTTTTCCCGGTAATCCGTATTTGCC (site TCGGATACTGG) | 0.615 |
| TCGGATCCATGGACCGGTTTTCCCGGTAATCCGTATTTGTC (site TCGGATCCTGA) | 0.795 |
| TCGGATGCATGGACCGGTTTTCCCGGTAATCCGTATTTGAG (site TCGGATGCTCT) | 1.56 |
| TCGGTATCATGGACCGGTTTTCCCGGTAATCCGTATTTGCA (site ACAGTATCTTG) | 1.54 |
| TCGGTATCATGGACCGGTTTTCCCGGTAATCCGTATTTGCA (site TCGGTATCTTG) | 2.31 |
| TCGTAGCCATGGACCGGTTTTCCCGGTAATCCGTATTTGTG (site TCGTAGCCTCA) | 0.0471 |
| TCGTATGCATGGACCGGTTTTCCCGGTAATCCGTATTTGAC (site TCGTATGCTGT) | 0.101 |
| TCGTCACCATGGACCGGTTTTCCCGGTAATCCGTATTTGTG (site TCGTCACCTCA) | 0.0129 |
| TCGTGACCATGGACCGGTTTTCCCGGTAATCCGTATTTGCA (site TCGTGACCTTG) | 0 |
| TCGTTCCCATGGACCGGTTTTCCCGGTAATCCGTATTTGAC (site TCGTTCCCTGT) | 0 |
| TCTAAAGCATGGACCGGTTTTCCCGGTAATCCGTATTTGAT (site ACTAAAGCTAT) | 0 |
| TCTAAAGCATGGACCGGTTTTCCCGGTAATCCGTATTTGAT (site CCTAAAGCTAT) | 0 |
| TCTAAAGCATGGACCGGTTTTCCCGGTAATCCGTATTTGAT (site GCTAAAGCTAT) | 0 |
| TCTAAAGCATGGACCGGTTTTCCCGGTAATCCGTATTTGAT (site TCTAAAGCTAT) | 0.373 |
| TCTAATTCATGGACCGGTTTTCCCGGTAATCCGTATTTGAA (site TCTAATTCTTT) | 0 |
| TCTAGACCATGGACCGGTTTTCCCGGTAATCCGTATTTGCC (site TCTAGACCTGG) | 0 |
| TCTATGCCATGGACCGGTTTTCCCGGTAATCCGTATTTGTT (site TCTATGCCTAA) | 0.00238 |
| TCTGATACATGGACCGGTTTTCCCGGTAATCCGTATTTGCT (site TCTGATACTAG) | 0 |

| Sequence | recombinant UMI read abundance (log10) |
| --- | --- |
| TCTGCAACATGGACCGGTTTTCCCGGTAATCCGTATTTGAA (site TCTGCAACTTT) | 0.00363 |
| TCTGCACCATGGACCGGTTTTCCCGGTAATCCGTATTTGGA (site TCTGCACCTTC) | 0.0216 |
| TCTGCAGCATGGACCGGTTTTCCCGGTAATCCGTATTTGAA (site TCTGCAGCTTT) | 0.00333 |
| TCTGCTGCATGGACCGGTTTTCCCGGTAATCCGTATTTGGC (site TCTGCTGCTGC) | 0 |
| TCTTACCCATGGACCGGTTTTCCCGGTAATCCGTATTTGGA (site TCTTACCCTTC) | 0.0207 |
| TCTTACTCATGGACCGGTTTTCCCGGTAATCCGTATTTGCA (site TCATACTCTTG) | 0.465 |
| TCTTACTCATGGACCGGTTTTCCCGGTAATCCGTATTTGCA (site TCCTACTCTTG) | 1.09 |
| TCTTACTCATGGACCGGTTTTCCCGGTAATCCGTATTTGCA (site TCGTACTCTTG) | 0.946 |
| TCTTACTCATGGACCGGTTTTCCCGGTAATCCGTATTTGCA (site TCTTACTCTTG) | 0.535 |
| TCTTATACATGGACCGGTTTTCCCGGTAATCCGTATTTGCT (site TCTTATACTAG) | 0.00302 |
| TCTTATCCATGGACCGGTTTTCCCGGTAATCCGTATTTGGA (site TCTTATCCTTC) | 0.0232 |
| TCTTCCCCATGGACCGGTTTTCCCGGTAATCCGTATTTGTA (site TATTCCCCTTA) | 0.0172 |
| TCTTCCCCATGGACCGGTTTTCCCGGTAATCCGTATTTGTA (site TCTTCCCCTTA) | 0 |
| TCTTCCCCATGGACCGGTTTTCCCGGTAATCCGTATTTGTA (site TGTTCCCCTTA) | 0.00596 |
| TCTTCCCCATGGACCGGTTTTCCCGGTAATCCGTATTTGTA (site TTTTCCCCTTA) | 0.00951 |
| TCTTGCCCATGGACCGGTTTTCCCGGTAATCCGTATTTGAT (site ACTTGCCCTAT) | 0.00765 |
| TCTTGCCCATGGACCGGTTTTCCCGGTAATCCGTATTTGAT (site CCTTGCCCTAT) | 0.0026 |
| TCTTGCCCATGGACCGGTTTTCCCGGTAATCCGTATTTGAT (site GCTTGCCCTAT) | 0.00287 |
| TCTTGCCCATGGACCGGTTTTCCCGGTAATCCGTATTTGAT (site TCTTGCCCTAT) | 0.0104 |
